Experimental data published in patent US20180327367A1, “MACROCYCLIC BROAD SPECTRUM ANTIBIOTICS” (priority 2015, published 2018).
≈ marks a conversion by molar mass, not a printed value. Where two headings read alike, the source gives them in different places.

Legend:
[1] = tested on: Escherichia coli ATCC 25922; test: Minimum inhibitory concentration, broth micro-dilution (CLSI), E. coli; format: cell-based; details: Escherichia coli, ATCC25922, 22 h, 35° C., 22 hours
[2] = tested on: Methicillin Resistant Staphylococcus aureus strain USA 300, NRS384; test: Minimum inhibitory concentration, broth micro-dilution (CLSI), S. aureus; format: cell-based; details: Staphylococcus aureus, MRSA / NRS 384 / USA300, 22 h, 35° C., 22 hours
Method in brief: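 Colonies grown 20 hours at 35° C were suspended in cation-adjusted Mueller Hinton Broth with 0.002% Tween-80. Cells were then added to 2-fold compound dilutions starting at 4 or 0.5 μg/mL, at OD600 0.0005.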

[3] = target: T1, SpsB (Staphylococcus aureus signal peptidase) (Staphylococcus aureus, UniProt P0A070); test: cell-based; format: biochemical; details: SpsB IC50, whole-cell S. aureus (USA300 background, overexpressing SpsB) as SpsB source; fluorogenic peptide substrate, kinetic read 30 min
T1 construct: This assay uses a suspension of Staphylococcus aureus cells as a source of SpsB instead of recombinant SpsB protein; endogenous in cells; host or cells: S. aureus, USA300 background, overexpressing SpsB (whole-cell suspension from frozen pellets)
Experimental: A kinetic fluorogenic enzyme activity assay was used to assess inhibition of SpsB (Staphylococcus aureus signal peptidase) activity and IC50s were determined. This assay uses a suspension of Staphylococcus aureus cells as a source of SpsB instead of recombinant SpsB protein.
Cell preparation: Luria broth (LB) was inoculated with S. aureus (USA300 background, overexpressing SpsB) and shaken at 37° C. until an OD600 nm of 1.5-2.0 was reached (˜4 hr). The culture was then diluted to an OD600 nm of 1.0 with LB, aliquoted and centrifuged at 10,000×g for 2 mins. The supernatant was removed and the pellet was resuspended in phosphate buffer (1×PBS, 12.5 mg/L MgCl2, 25 mg/L CaCl2, 0.1% Tween-80) to an OD600 nm of 0.5, then centrifuged again at 10,000x g for 2 mins. The supernatant was removed and the pellets were frozen at −20° C.
Test compounds were prepared in DMSO at a concentration of 10 mg/mL. These compound stocks were diluted into DMSO to a concentration of 25 μg/mL and serial 3-fold dilutions were made in DMSO, for a total of 11 compound concentrations. 20 nL of each compound solution was pre-spotted into a white 384-well plate (50 μL/well polypropylene, Nunc) using acoustic fluid transfer (Echo).
Frozen S. aureus pellets were resuspended in assay buffer (1x PBS, 12.5 mg/L MgCl2, 25 mg/L CaCl2, 0.1% Tween-80) to an OD600 nm of 0.05, then mixed 1:1 (v/v) with 20 μM substrate ((Dabcyl)βAla-KPAKAAE(Edans)) in assay buffer, and this solution was added (20 μL/well) to the 384-well plate that had been pre-spotted with compound. Fluorescence intensity was then immediately read kinetically for 30 minutes with 2 minute read intervals to monitor cleavage of the internally quenched peptide substrate (excitation wavelength=340 nm, emission wavelength=490 nm, Molecular Devices Spectramax M5). Reaction rate (slope) was plotted against inhibitor concentration to derive the IC50.

[4] = tested on: Escherichia coli MC4100 harboring the IMP4213 (E. coli IMP); test: microbe, parasite or virus in culture; format: cell-based; details: Escherichia coli, 22 h, read-out: MIC (μg/mL) E. coli IMP, E. coli MC4100 IMP4213, increased outer-membrane permeability; 35° C., 22 hours
Method in brief: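 Ten 2-fold dilutions, from 4 μg/mL or from 0.5 μg/mL depending on protocol, are challenged with bacteria at OD600 0.0005 in Tween-80-supplemented cation-adjusted Mueller Hinton Broth. Plates incubate 22 hours at 35° C per CLSI. The E. coli IMP4213 strain has increased outer-membrane permeability.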

[5] = E. coli ATCC 25922, read-out: MIC (μg/mL) E. coli
[6] = MRSA USA 300 NRS384, read-out: MIC (μg/mL) S. aureus
[7] = read-out: MIC (μg/mL) E. coli, E. coli ATCC 25922
[8] = read-out: MIC (μg/mL) S. aureus, MRSA USA 300 NRS384

T1 sequence (P0A070 whole entry): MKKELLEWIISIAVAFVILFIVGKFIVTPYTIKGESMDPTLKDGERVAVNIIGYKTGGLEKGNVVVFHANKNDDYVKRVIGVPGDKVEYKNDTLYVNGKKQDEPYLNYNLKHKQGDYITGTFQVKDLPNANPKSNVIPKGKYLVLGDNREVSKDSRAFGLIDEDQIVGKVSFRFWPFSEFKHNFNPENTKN

Structure (SMILES) | MIC [1, 5] | MIC [2, 6] | IC50 [3] | MIC [4] | MIC [1, 7] | MIC [2, 8]
CCCc1ccc(-c2nc(C)c(C(=O)N[C@@H](CCN)C(=O)N(C)[C@@H]3C(=O)N[C@@H](C)C(=O)N[C@H](C(=O)NCC#N)Cc4ccc(OCCN)c(c4)-c4cc3ccc4OCCN)c(C)n2)cc1 [Compound 165] | 0.19 µg/mL (≈ 0.213 µM) | 0.047 µg/mL (≈ 0.0528 µM) | 0.61 nM | 0.0039 µg/mL (≈ 0.00438 µM) |  | 
CCCCCCc1ccc(C(=O)N[C@@H](CCC(N)=O)C(=O)N(C)[C@@H]2C(=O)N[C@@H](C)C(=O)N[C@H](C(=O)NCC#N)Cc3ccc(OCCN)c(c3)-c3cc2ccc3OCCN)c(C)c1 [Compound 246] | 16 µg/mL (≈ 18.4 µM) | 0.13 µg/mL (≈ 0.15 µM) | 1.1 nM | 0.063 µg/mL (≈ 0.0726 µM) |  | 
CCCCCCCCCC(=O)NCC(=O)N(C)[C@@H]1C(=O)N[C@@H](C)C(=O)N[C@H](C(=O)NCC#N)Cc2ccc(OCCN)c(c2)-c2cc1ccc2OCCN [Compound 463] | > 64 µg/mL | 0.5 µg/mL (≈ 0.668 µM) | 3.2 nM | 0.5 µg/mL (≈ 0.668 µM) |  | 
CCc1cnc(-c2ccc(C(=O)N[C@@H](CCN)C(=O)N(C)[C@@H]3C(=O)N[C@@H](C)C(=O)N[C@H](C(=O)NCC#N)Cc4ccc(OCCN)c(c4)-c4cc3ccc4OCCN)c(C)c2)nc1 [Compound 176] | 2 µg/mL (≈ 2.32 µM) | 1 µg/mL (≈ 1.16 µM) | 2.6 nM | 0.13 µg/mL (≈ 0.151 µM) |  | 
CCCCc1ccc(C(=O)N[C@@H](CCO)C(=O)N(C)[C@@H]2C(=O)N[C@@H](C)C(=O)N[C@H](C(=O)NCC#N)Cc3ccc(OCCN)c(c3)-c3cc2ccc3OCCN)c(C)c1 [Compound 258] | 64 µg/mL (≈ 78.7 µM) | 1 µg/mL (≈ 1.23 µM) | 2.8 nM | 0.19 µg/mL (≈ 0.234 µM) |  | 
CCCCCCCCCCCC(=O)N[C@@H](CO)C(=O)N[C@@H](CCN)C(=O)N(C)[C@@H]1C(=O)N[C@@H](C)C(=O)N[C@H](C(=O)NCC#N)Cc2ccc(OCCN)c(c2)-c2cc1ccc2OCCN [Compound 384] |  |  | 1.2 nM | 0.031 µg/mL (≈ 0.0342 µM) | 3 µg/mL (≈ 3.31 µM) | 0.012 µg/mL (≈ 0.0132 µM)
CCCCCCCCCC(=O)N[C@@H](CO)C(=O)N(C)[C@@H]1C(=O)N[C@@H](C)C(=O)N[C@H](C(=O)NCC#N)Cc2ccc(OCCN)c(c2)-c2cc1ccc2OCCN [Compound 232] | > 64 µg/mL | 1.5 µg/mL (≈ 1.93 µM) | 2.4 nM | 0.25 µg/mL (≈ 0.321 µM) |  | 
Cc1cc(C(C)(C)C)ccc1C(=O)N[C@@H](CCN)C(=O)N(C)[C@@H]1C(=O)N[C@@H](C)C(=O)N[C@H](C(=O)NCC#N)Cc2ccc(OCCN)c(c2)-c2cc1ccc2OCCN [Compound 266] | 3.5 µg/mL (≈ 4.31 µM) | 0.5 µg/mL (≈ 0.616 µM) | 2.1 nM | 0.083 µg/mL (≈ 0.102 µM) |  | 
CCCCCCCCCCNCC(=O)N(C)[C@@H]1C(=O)N[C@@H](C)C(=O)N[C@H](C(=O)NCC#N)Cc2ccc(OCCN)c(c2)-c2cc1ccc2OCCN [Compound 132] |  |  | 0.71 nM | 3 µg/mL (≈ 4.08 µM) | > 64 µg/mL | 0.25 µg/mL (≈ 0.34 µM)
Cc1cc(-c2ccc(Cl)cc2)ccc1C(=O)N[C@@H](CCN)C(=O)N(C)[C@@H]1C(=O)N[C@@H](C)C(=O)N[C@H](C(=O)NCC#N)Cc2ccc(OCCN)c(c2)-c2cc1ccc2OCCN [Compound 148] | 0.88 µg/mL (≈ 1.02 µM) | 0.055 µg/mL (≈ 0.0635 µM) | 0.75 nM | 0.0098 µg/mL (≈ 0.0113 µM) |  | 
CCCCCCCCCCCC(=O)N[C@@H](CCC(N)=O)C(=O)N(C)[C@@H]1C(=O)N[C@@H](C)C(=O)N[C@H](C(=O)NCC#N)Cc2ccc(OCCN)c(c2)-c2cc1ccc2OCCN [Compound 244] | 48 µg/mL (≈ 56.6 µM) | 0.13 µg/mL (≈ 0.153 µM) | 1 nM | 0.19 µg/mL (≈ 0.224 µM) |  | 
CCCCCCCCCCCCCC(=O)N[C@@H](CCN)C(=O)N(C)[C@@H]1C(=O)N[C@@H](C)C(=O)N[C@H](C(=O)NCC#N)Cc2ccc(OCCC)c(c2)-c2cc1ccc2OCCN [Compound 323] | 1.5 µg/mL (≈ 1.77 µM) | 0.75 µg/mL (≈ 0.885 µM) | 2.8 nM | 0.094 µg/mL (≈ 0.111 µM) |  | 
CCCCc1ccc(-c2ccc(C(=O)N[C@@H](CCCCN)C(=O)N(C)[C@@H]3C(=O)N[C@@H](C)C(=O)N[C@H](C(=O)NC(C)(C)C#N)Cc4ccc(OCCN)c(c4)-c4cc3ccc4OCCN)cc2)cc1 [Compound 496] | 16 µg/mL (≈ 17.2 µM) | 3 µg/mL (≈ 3.23 µM) | 17 nM | 0.5 µg/mL (≈ 0.538 µM) |  | 
CCCCc1ccc(C(=O)N[C@H](CCO)C(=O)N[C@@H](CCN)C(=O)N(C)[C@@H]2C(=O)N[C@@H](C)C(=O)N[C@H](C(=O)NCC#N)Cc3ccc(OCCN)c(c3)-c3cc2ccc3OCCN)c(C)c1 [Compound 381] |  |  | 2.9 nM | 0.5 µg/mL (≈ 0.548 µM) | 64 µg/mL (≈ 70.1 µM) | 0.5 µg/mL (≈ 0.548 µM)
CCCCCCCCCCCC(=O)N[C@@H](C[C@@H]1CCCN1)C(=O)N(C)[C@@H]1C(=O)N[C@@H](C)C(=O)N[C@H](C(=O)NCC#N)Cc2ccc(OCCN)c(c2)-c2cc1ccc2OCCN [Compound 484] | 8 µg/mL (≈ 9.3 µM) | 0.063 µg/mL (≈ 0.0732 µM) | 1 nM | 0.063 µg/mL (≈ 0.0732 µM) |  | 
C[C@@H]1NC(=O)[C@@H](N(C)C(=O)[C@H](CCCCN)NC(=O)c2ccc(-c3ccc(C(C)(C)C)cc3)cc2)c2ccc(OCCN)c(c2)-c2cc(ccc2OCCN)C[C@@H](C(=O)NCC#N)NC1=O [Compound 108] |  |  | 1.2 nM | 0.047 µg/mL (≈ 0.0521 µM) | 0.5 µg/mL (≈ 0.554 µM) | 0.063 µg/mL (≈ 0.0698 µM)
CCCCCCCCCCCC(=O)N[C@@H](CCO)C(=O)N(C)[C@@H]1C(=O)N[C@@H](C)C(=O)N[C@H](C(=O)NCC#N)Cc2ccc(OCCN)c(c2)-c2cc1ccc2OCCN [Compound 257] | 12 µg/mL (≈ 14.6 µM) | 0.13 µg/mL (≈ 0.158 µM) | 0.92 nM | 0.063 µg/mL (≈ 0.0767 µM) |  | 
CCCCCCCCCCC(=O)N[C@@H](CCN)C(=O)N(C)[C@@H]1C(=O)N[C@@H](C)C(=O)N[C@H](C(=O)NCC#N)Cc2ccc(OCCN)c(c2)-c2cc1ccc2OCCN [Compound 104] | 4 µg/mL (≈ 4.96 µM) | 0.047 µg/mL (≈ 0.0583 µM) | 0.5 nM | 0.023 µg/mL (≈ 0.0285 µM) |  | 
CCCCCCCOc1c(F)cc(C(=O)N[C@@H](CCN)C(=O)N(C)[C@@H]2C(=O)N[C@@H](C)C(=O)N[C@H](C(=O)NCC#N)Cc3ccc(OCCN)c(c3)-c3cc2ccc3OCCN)cc1Cl [Compound 293] | 0.38 µg/mL (≈ 0.418 µM) | 0.063 µg/mL (≈ 0.0693 µM) | 1.5 nM | < 0.0039 µg/mL |  | 
CCCCCCCCc1ccc(C(=O)N[C@@H](CCCCN)C(=O)N(C)[C@@H]2C(=O)N[C@@H](C)C(=O)N[C@H](C(=O)NCC#N)Cc3ccc(OC)c(c3)-c3cc2ccc3OC)cc1 [Compound 470] | > 64 µg/mL | 3 µg/mL (≈ 3.64 µM) | 24 nM | 0.5 µg/mL (≈ 0.607 µM) |  | 
CCCCc1ccc(-c2ccc(C(=O)N[C@@H](CN)C(=O)N(C)[C@@H]3C(=O)N[C@@H](C)C(=O)N[C@H](C(=O)NCC#N)Cc4ccc(OCCN)c(c4)-c4cc3ccc4OCCN)cc2)cc1 [Compound 341] | 0.5 µg/mL (≈ 0.581 µM) | 0.13 µg/mL (≈ 0.151 µM) | 1.1 nM | 0.031 µg/mL (≈ 0.036 µM) |  | 
Cc1cc(CCC(C)C)ccc1C(=O)N[C@@H](CCN)C(=O)N(C)[C@@H]1C(=O)N[C@@H](C)C(=O)N[C@H](C(=O)NCC#N)Cc2ccc(OCCN)c(c2)-c2cc1ccc2OCCN [Compound 217] | 0.5 µg/mL (≈ 0.605 µM) | 0.094 µg/mL (≈ 0.114 µM) | 0.88 nM | 0.016 µg/mL (≈ 0.0194 µM) |  | 
CCCCCCc1ccc(-c2ncc(C(=O)N[C@@H](CCN)C(=O)N(C)[C@@H]3C(=O)N[C@@H](C)C(=O)N[C@H](C(=O)NCC#N)Cc4ccc(OCCN)c(c4)-c4cc3ccc4OCCN)c(C)n2)cc1 [Compound 159] | 0.13 µg/mL (≈ 0.142 µM) | 0.063 µg/mL (≈ 0.0686 µM) | 0.82 nM | < 0.0039 µg/mL |  | 
C[C@@H]1NC(=O)[C@@H](N(C)C(=O)[C@H](CCN)NC(=O)c2ccc(-c3ccc4c(c3)CCCC4)cc2Cl)c2ccc(OCCN)c(c2)-c2cc(ccc2OCCN)C[C@@H](C(=O)NCC#N)NC1=O [Compound 140] |  |  | 0.99 nM | 0.0078 µg/mL (≈ 0.0086 µM) | 0.13 µg/mL (≈ 0.143 µM) | 0.031 µg/mL (≈ 0.0342 µM)
